Assay results taken from US6498163B1, “Pyrido[2,3-D]pyrimidines and 4-aminopyrimidines as inhibitors of cellular proliferation” (Warner-Lambert Company, priority 1997, dated 2002).
Structures can show the parent of a compound that is named as a salt. Where two headings read alike, the source gives them in different places.

Experiments:
[1] = biological target: T1, PDGF-β receptor tyrosine kinase (Mus musculus, UniProt P05622); experiment: PDGF receptor tyrosine kinase assay; format: biochemical; conditions: Table 4, Formula II compound
T1 construct: amplify a fragment of DNA that codes for the intracellular tyrosine kinase domain; made in house; host or cells: SF9 insect cells (baculovirus)
Protocol: (§1) The compounds of Formulas I and II also have shown good inhibitory activity against certain growth factor receptor tyrosine kinase enzymes, including fibroblast growth factor (FGF) and platelet derived growth factor (PDGF). […] The invention compounds range in IC50 inhibition against FGF tyrosine kinase generally from about 0.004 to about 40 μM. […] The assays used to determine these activities were carried out as follows:
(§2) PDGF and EGF Receptor Tyrosine Kinase Assays
(§3) Full-length cDNAs for the mouse PDGF-β and human FGF-1 (flg) receptor tyrosine kinases were obtained from J. Escobedo and prepared as described in J. Biol. Chem., 1991;262:1482-1487. PCR primers were designed to amplify a fragment of DNA that codes for the intracellular tyrosine kinase domain. The fragment was inserted into a baculovirus vector, cotransfected with AcMNPV DNA, and the recombinant virus isolated. SF9 insect cells were infected with the virus to overexpress the protein, and the cell lysate was used for the assay. […] Filters were washed three times with 15% TCA containing 100 mM sodium pyrophosphate, and the radioactivity retained on the filters counted in a Wallac 1250 Betaplate reader. Nonspecific activity was defined as radioactivity retained on the filters following incubation of samples with buffer alone (no enzyme). […]

cdk4/D = cdk4/D (Homo sapiens, UniProt P11802); experiment: Cyclin-dependent kinase 4 (cdk4) assay; format: biochemical; conditions: for cdk4/D % inhibition at 40 μM: Table 2
Protocol: As noted above, the compounds of this invention are potent inhibitors of cyclin-dependent kinases, and accordingly, are useful in treating and preventing atherosclerosis, and other cell proliferative disorders like cancer. […] A typical assay, for instance, measures inhibitory activity against the cyclin D dependent kinase 4 enzyme (cdk4/D). […] The cdk 4 assay was carried out as follows.
Cyclin-Dependent Kinase 4 (cdk4) Assay
The total volume was 0.1 mL containing a final concentration of 20 mM TRIS (tris[hydroxymethyl]aminomethane), at pH 7.4, 50 mM NaCl, 1 mM dithiothreitol, 10 mM MgCl2, 25 μM ATP containing 0.25 μCi of [^32P]ATP, 20 ng of cdk4, 1 μg of retinoblastoma, and appropriate dilutions of a compound of the present invention. All components except the ATP were added to the wells, and the plate was placed on a plate mixer for 2 minutes. The reaction was started by adding [^32P]ATP and the plate was incubated at 25° C. for 15 minutes. The reaction was terminated by addition of 0.1 mL of 20% trichloroacetic acid (TCA). The plate was kept at 4° C. for at least 1 hour to allow the substrate to precipitate. The wells were then washed five times with 0.2 mL of 10% TCA and ^32P incorporation was determined with a beta plate counter (Wallac Inc., Gaithersburg, Md.).

[2] = biological target: T2, FGF-1 (flg) receptor tyrosine kinase (Homo sapiens, UniProt P11362); experiment: FGF receptor tyrosine kinase assay; format: biochemical; conditions: Table 4, Formula II compound
T2 construct: amplify a fragment of DNA that codes for the intracellular tyrosine kinase domain; made in house; host or cells: SF9 insect cells (baculovirus)
Protocol: as §1, §2, §3

cdc2/cyclinB = cdc2/cyclinB (Homo sapiens, UniProt P06493); experiment: Cyclin-dependent kinase assay cdc2/cyclinB (cdk1/B); format: biochemical; conditions: Table 1
[3] = tested on: MCF-7 human mammary tumor xenografts; experiment: MCF-7 human mammary tumor xenograft; format: in vivo, female nude mice; conditions: 5 to 20 mg/kg, q12 h×2; days 1-14, subcutaneous MCF-7 xenografts
[4] = Plasma levels in mice after dosing; format: in vivo, nude mice; conditions: intraperitoneally at 12 mg/kg, at 30 minutes following dosing
Protocol: For example, the compound of Example 60 was administered orally at 5 mg/kg to mice, and plasma levels of about 200 nM were measured at 30 minutes following dosing. The compound was also administered intraperitoneally at 12 mg/kg and produced a peak plasma concentration of 10,000 nM at 30 minutes following dosing.

[5] = Table 2, Formula II compounds, read-out: cdk4/IC50 IC50

Sequence of cdk4/D (P11802 whole entry, species assumed): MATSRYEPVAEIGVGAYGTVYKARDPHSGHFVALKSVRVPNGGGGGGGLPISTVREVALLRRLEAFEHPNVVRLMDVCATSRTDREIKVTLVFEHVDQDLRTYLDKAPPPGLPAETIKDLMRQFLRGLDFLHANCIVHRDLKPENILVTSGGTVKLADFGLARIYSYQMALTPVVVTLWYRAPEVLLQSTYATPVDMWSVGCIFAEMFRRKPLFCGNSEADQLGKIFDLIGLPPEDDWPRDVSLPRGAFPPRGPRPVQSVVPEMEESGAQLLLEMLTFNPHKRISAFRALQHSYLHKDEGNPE
Sequence of cdk4/D (P24385 whole entry partner, species assumed): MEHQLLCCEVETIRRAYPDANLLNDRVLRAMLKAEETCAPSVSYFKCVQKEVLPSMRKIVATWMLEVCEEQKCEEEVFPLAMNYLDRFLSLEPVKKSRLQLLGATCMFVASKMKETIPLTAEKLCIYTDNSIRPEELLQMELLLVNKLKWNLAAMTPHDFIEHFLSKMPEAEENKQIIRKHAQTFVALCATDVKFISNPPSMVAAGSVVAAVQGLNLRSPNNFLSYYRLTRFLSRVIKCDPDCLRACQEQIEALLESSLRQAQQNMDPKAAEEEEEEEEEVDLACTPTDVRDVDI
Sequence of cdc2/cyclinB (P06493 whole entry, species assumed): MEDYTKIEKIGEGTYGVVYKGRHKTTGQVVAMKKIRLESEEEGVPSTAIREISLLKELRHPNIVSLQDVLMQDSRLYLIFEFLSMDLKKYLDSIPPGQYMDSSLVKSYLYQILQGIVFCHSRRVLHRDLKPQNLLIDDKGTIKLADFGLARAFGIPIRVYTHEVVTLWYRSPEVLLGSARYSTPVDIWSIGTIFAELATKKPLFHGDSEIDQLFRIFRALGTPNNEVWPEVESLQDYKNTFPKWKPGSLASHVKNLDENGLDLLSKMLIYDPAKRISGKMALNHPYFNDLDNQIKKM
Sequence of cdc2/cyclinB (P14635 whole entry partner, species assumed): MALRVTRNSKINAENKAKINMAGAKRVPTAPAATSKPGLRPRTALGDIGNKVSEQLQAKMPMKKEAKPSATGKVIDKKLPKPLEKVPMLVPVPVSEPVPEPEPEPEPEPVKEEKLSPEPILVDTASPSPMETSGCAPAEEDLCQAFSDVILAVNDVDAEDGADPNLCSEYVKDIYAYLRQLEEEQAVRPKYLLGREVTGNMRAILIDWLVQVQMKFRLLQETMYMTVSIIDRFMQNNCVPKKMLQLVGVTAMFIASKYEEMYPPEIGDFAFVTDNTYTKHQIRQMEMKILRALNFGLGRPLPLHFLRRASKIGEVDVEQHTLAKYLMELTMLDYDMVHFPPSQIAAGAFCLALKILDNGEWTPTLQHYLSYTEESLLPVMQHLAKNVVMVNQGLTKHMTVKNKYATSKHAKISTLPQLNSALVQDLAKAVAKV
T2 sequence (P11362 478-767 limits assumed): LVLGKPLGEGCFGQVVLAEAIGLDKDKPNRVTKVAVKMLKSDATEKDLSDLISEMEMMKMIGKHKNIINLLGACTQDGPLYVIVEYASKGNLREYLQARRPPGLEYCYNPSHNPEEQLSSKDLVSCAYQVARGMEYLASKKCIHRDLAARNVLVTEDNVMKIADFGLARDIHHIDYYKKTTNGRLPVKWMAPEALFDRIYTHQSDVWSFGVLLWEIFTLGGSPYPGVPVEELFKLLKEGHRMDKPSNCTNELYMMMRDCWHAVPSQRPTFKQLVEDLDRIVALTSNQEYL
T1 sequence (P05622 599-961 limits assumed): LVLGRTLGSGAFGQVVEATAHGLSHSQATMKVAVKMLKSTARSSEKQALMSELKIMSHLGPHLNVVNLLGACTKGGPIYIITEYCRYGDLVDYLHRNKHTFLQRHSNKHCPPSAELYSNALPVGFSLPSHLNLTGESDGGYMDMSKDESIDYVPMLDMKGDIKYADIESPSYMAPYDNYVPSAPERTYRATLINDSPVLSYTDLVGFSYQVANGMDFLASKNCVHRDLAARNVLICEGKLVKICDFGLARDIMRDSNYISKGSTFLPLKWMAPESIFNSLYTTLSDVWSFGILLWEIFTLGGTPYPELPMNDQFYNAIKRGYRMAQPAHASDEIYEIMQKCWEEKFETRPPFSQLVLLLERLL

Row | Molecule | melting point | further results
1 | CCNc1nc(Nc2ccccc2)ncc1/C=C/C(=O)OCC [Example 17, Ethyl 3-(4-Ethylamino-2-phenylamino-pyrimidin-5-yl)acrylate] | 125 to 126 °C | IC50 [1]: 3700 nM; IC50 (cdk4/D; [5]): 2000 nM; IC50 [2]: 4500 nM
2 | 3-(4-Ethylamino-2-phenylamino-pyrimidin-5-yl)-but-2-enoic acid ethyl ester [Example 73] | – | cdk4/D % inhibition at 40 μM (cdk4/D): 58%
3 | CCCCn1c(=O)ccc2cnc(Nc3ccccc3)nc21 [Example 40, 8-Butyl-2-phenylamino-8H-pyrido[2,3-d]pyrimidin-7-one] | 183 to 184 °C | –
4 | O=c1ccc2cnc(Nc3ccccc3)nc2n1CCCOCc1ccccc1 [Example 38, 8-(3-Benzyloxypropyl)-2-phenylamino-8H-pyrido[2,3-d]pyrimidin-7-one] | – | IC50 (cdk4/D; Table 1, read-out: cdk4/D IC50): 2700 nM; IC50 (cdc2/cyclinB): 29800 nM
5 | CCn1c(=O)ccc2cnc(NC(C)C)nc21 (as salt: sulfate) [Example 47, 8-Ethyl-2-isopropylamino-8H-pyrido[2,3-d]pyrimidin-7-one] | 119 to 120 °C | –
6 | O=c1ccc2cnc(NCc3ccccc3)nc2n1C1CCCCC1 [Example 222, 2-Benzylamino-8-cyclohexyl-8H-pyrido[2,3-d]pyrimidin-7-one] | 183 to 184 °C | –
7 | CCn1c(=O)c(C)cc2cnc(Nc3ccc(N4CCC(CCCN5CCOCC5)CC4)cc3)nc21 [Example 264, 8-Ethyl-6-methyl-2-{4-[4-(3-morpholin-4-yl-propyl)-piperidin-1-yl]-phenylamino}-8H-pyrido[2,3-d]pyrimidin-7-one] | 199 to 200 °C | –
8 | O=c1ccc2cnc(Nc3ccc(SC(F)(F)F)cc3)nc2n1C1CC2CCC1C2 (stereo not drawn) [Example 221, 8-Bicyclo[2.2.1]hept-2-yl-2-(4-trifluoromethylsulfanyl-phenylamino)-8H-pyrido[2,3-d]pyrimidin-7-one] | 205 to 206 °C | –
9 | O=c1ccc2cnc(Nc3ccc(N4CCCCC4)cc3)nc2n1C1CC2CCC1C2 (stereo not drawn) [Example 229, 8-Bicyclo[2.2.1]hept-2-yl-2-(4-piperidin-1-yl-phenylamino)-8H-pyrido[2,3-d]pyrimidin-7-one] | 209 °C | –
10 | O=c1ccc2cnc(Nc3ccc(N4CCCCC4)cc3)nc2n1C1CC2CCC1C2 (stereo not drawn) [Example 181, 8-Bicyclo[2.2.1]hept-2-yl-2-(4-piperidin-1-yl-phenylamino)-8H-pyrido[2,3-d]pyrimidin-7-one] | 243 to 244 °C | –
11 | O=c1ccc2cnc(NCCCN3CCCCC3)nc2n1C1CCCCC1 [Example 166, 8-Cyclohexyl-2-(3-piperidin-1-yl-propylamino)-8H-pyrido[2,3-d]pyrimidin-7-one] | 111 to 112 °C | –
12 | CCC(CC)n1c(=O)ccc2cnc(Nc3ccc(N4CCN(C)CC4)cc3)nc21 [Example 77, 8-(1-Ethylpropyl)-2-[4-(4-methylpiperazin-1-yl)-phenylamino]-8H-pyrido[2,3-d]pyrimidin-7-one] | 155 to 157 °C | –
13 | CC(C)n1c(=O)ccc2cnc(Nc3ccc(N4CCN(C)CC4)cc3)nc21 [Example 60, 8-Isopropyl-2-[4-(4-methylpiperazin-1-yl)-phenylamino]-8H-pyrido[2,3-d]pyrimidin-7-one] | – | tumor growth inhibition [3]: statistically insignificant tumor growth inhibitions; peak plasma concentration [4]: 10,000 nM
14 | CCOC(=O)/C=C/c1cnc(Nc2ccccc2)nc1N [Example 28, Ethyl 3-(4-Amino-2-phenylamino-pyrimidin-5-yl)acrylate] | 190 to 192 °C | IC50 (cdk4/D; [5]): 65000 nM
15 | CN(C)c1ccc(Nc2ncc3ccc(=O)n(C4CCCCC4)c3n2)cc1 [Example 147, 8-Cyclohexyl-2-(4-dimethylamino-phenylamino)-8H-pyrido[2,3-d]pyrimidin-7-one] | – | IC50 (cdk4/D; Table 1, read-out: cdk4/D IC50): 480 nM; IC50 (cdc2/cyclinB): 89 nM
16 | COc1ccc(CNc2ncc3ccc(=O)n(C(C)C)c3n2)cc1OC [Example 256, 2-(3,4-Dimethoxy-benzylamino)-8-isopropyl-8H-pyrido[2,3-d]pyrimidin-7-one] | 128 °C | –
17 | CC(C)Nc1ncc2ccc(=O)n(C)c2n1 [Example 67, 2-Isopropylamino-8-methyl-8H-pyrido[2,3-d]pyrimidin-7-one] | 148 to 149 °C | –
18 | CCn1c(=O)c(C)cc2cnc(Nc3ccc(N4CCN(C)CC4)cc3)nc21 [Example 84] | – | IC50 (cdk4/D; Table 1, read-out: cdk4/D IC50): 180 nM
19 | CN(C)CCCN1CCN(c2ccc(Nc3ncc4ccc(=O)n(C5CCCCC5)c4n3)cc2)CC1 [Example 144, 8-Cyclohexyl-2-{4-[4-(3-dimethylamino-propyl)-piperazin-1-yl]-phenylamino}-8H-pyrido[2,3-d]pyrimidin-7-one] | 169 to 170 °C | –
20 | O=c1ccc2cnc(Nc3ccc(N4CCCCC4)cc3)nc2n1C1CCCCCC1 [Example 163, 8-Cycloheptyl-2-(4-piperidin-1-yl-phenylamino)-8H-pyrido[2,3-d]pyrimidin-7-one] | 201 to 202 °C | –
21 | CN1CCN(c2ccc(Nc3ncc4ccc(=O)n(CCOCc5ccccc5)c4n3)cc2)CC1 [Example 140, 8-(2-Benzyloxy-ethyl)-2-[4-(4-methyl-piperazin-1-yl)-phenylamino]-8H-pyrido[2,3-d]pyrimidin-7-one] | 183 to 185 °C | –
22 | O=c1ccc2cnc(Nc3ccc(N4CCCC(CO)C4)cc3)nc2n1C1CCCCC1 (stereo not drawn) [Example 185, 8-Cyclohexyl-2-[4-(3-hydroxymethyl-piperidin-1-yl)-phenylamino]-8H-pyrido[2,3-d]pyrimidin-7-one] | 194 to 195 °C | –
23 | O=c1ccc2cnc(Nc3ccccc3)nc2n1-c1ccccc1 [Example 101, 2-Phenylamino-8-phenyl-8H-pyrido[2,3-]pyrimidin-7-one] | 300 to 302 °C | –
24 | CCOC(=O)C1CCN(c2ccc(Nc3ncc4ccc(=O)n(C5CCCCC5)c4n3)cc2)CC1 [Example 164, 1-[4-(8-Cyclohexyl-7-oxo-7,8-dihydro-pyrido[2,3-d]pyrimidin-2-ylamino)-phenyl]-piperidine-4-carboxylic acid ethyl ester] | 174 to 175 °C | –
25 | 3-(4-Ethylamino-2-phenylamino-pyrimidin-5yl)acrylonitrile [Example 72] | – | cdk4/D % inhibition at 40 μM (cdk4/D): 18%
26 | O=c1ccc2cnc(NCCN3CCCCC3)nc2n1C1CCCCC1 [Example 165, 8-Cyclohexyl-2-(2-piperidin-1-yl-ethylamino)-8H-pyrido[2,3-d]pyrimidin-7-one] | 156 to 157 °C | –
